We go through eleven compounds from article PMC7756656, “Discovery of Homobivalent Bitopic Ligands of the Cannabinoid CB2 Receptor” (Chemistry (Weinheim an Der Bergstrasse, Germany), 2020).

For assay [1], the target named is T1, CB1R (hCB1R) (Homo sapiens, UniProt P21554).
T1 construct: gene CNR1; expressed in HEK-293T cells; membrane fractions
The experiment in a line: biochemical. The format is HEK-293T membranes. Also noted: [3H]CP-55,940 competition radioligand binding, membrane filtration, scintillation counting. From the text:
(§1) In vitro binding affinities of the alleged bitopic ligands 18–29 (Table 1) and the corresponding monovalent counterparts 6–17 (Table S1) were obtained from [^3H]CP‐55,940 competition‐binding assays using membrane fractions of the human CB1R and CB2R, respectively, expressed in HEK‐293T cells. […] Addition of the second pharmacophore makes bivalent ligands capable of binding CB2R in a selective manner. Optimal spacer length for N1‐ and N2‐ethyl derivatives is from 10 (n=8) to 14 (n=12) methylene units. S23 Aldrich, Madrid, Spain). Membranes were resuspended in the corresponding buffer and were incubated (90 min at 30 °C) with the radioligand and each compound at a high concentration (40 μM) with the purpose of determining the % of radioligand displacement. […] Nonspecific binding was determined with 10 μM WIN55212-2 (Sigma-Aldrich, Madrid, Spain) and total radioligand binding by incubation with the membranes in the absence of any compound. Filtration was performed by a Harvester filtermate (PerkinElmer, Boston, MA, USA) with Filtermat A GF/C filters pretreated with polyethylenimine 0.05%. After filtering, the filter was washed nine times with binding buffer and dried, and a melt-on scintillation sheet (MeltilexTM A, PerkinElmer, Boston, MA, USA) was melted onto it. Then, radioactivity was quantified by a liquid scintillation counter (Wallac MicroBeta Trilux, PerkinElmer, Boston, MA, USA). Competition binding data were analyzed by using GraphPad Prism, version 5.02 (GraphPad Software Inc., San Diego, CA, USA), and Ki values are expressed as the mean ± SEM of at least three experiments performed in triplicate for each. 2.2- cAMP determination assays. Determination of cAMP levels in HEK293 cells stably expressing the CB2R was performed using the Lance-Ultra cAMP kit (PerkinElmer) according to the manufacturer’s instructions. Briefly, HEK293 cells expressing the CB2R were dispensed in white 384-well microplates at a density of 5.000 cells per well. Finally, cells were incubated for 60 min at room temperature with HTRF assay reagents, and fluorescence at 665 nm was analyzed on a PHERAstar Flagship microplate reader equipped with an HTRF optical module (BMG Labtech). Data analysis was made based on the fluorescence ratio emitted by the labeled cAMP probe (665 nm) over the light emitted by the europium cryptate-labeled anti-cAMP antibody (620 nm). A standard curve was used to calculate cAMP concentration. Forskolin stimulated cAMP levels were normalized to 100%. Data was analyzed by using […]

Assay [2] addresses T2, CB2R (hCB2R) (Homo sapiens, UniProt P34972).
T2 construct: gene CNR2; expressed in HEK-293T cells
The experiment in a line: biochemical. The class given is HEK-293T membranes. Also noted: [3H]CP-55,940 competition radioligand binding, membrane filtration, scintillation counting.
Excerpt: as §1

The target in assay [3] is T2, CB2R (hCB2R). Kind of assay: [3H]CP-55, […] competition binding, HEK-293T membranes. Particulars: read-out: CB2R Ki [μM]^[b].
The target of assay [4] is T1, CB1R (hCB1R). Described as above. Particulars: read-out: CB1R Ki [μM]^[b].
Assay [5] has as its target T2, CB2R (hCB2R). Kind of assay: inhibition of forskolin-induced cAMP, HEK-293T cells. Particulars: read-out: Wild type / pEC50 (converted). The class given is cell-based.
Assay [6] concerns the target T3, CB2R (hCB2R) (Homo sapiens, UniProt P34972, V36M).
T3 construct: gene CNR2; expressed in HEK-293T cells
Described as above. The class given is cell-based. Particulars: read-out: Val36^1.35Met / pEC50 (converted).

For assay [7], the target named is T4, CB2R (hCB2R) (Homo sapiens, UniProt P34972, A282M).
T4 construct: gene CNR2; expressed in HEK-293T cells
Described as above. The format is cell-based. Particulars: read-out: Ala282^7.36Met / pEC50 (converted).

Assay [8] is described as follows: [3H]CP-55, […] competition binding, HEK-293T membranes. Also noted: species or system Homo sapiens. Particulars: read-out: CB1R Ki [μM]^[b].

T1 sequence (P21554 whole entry): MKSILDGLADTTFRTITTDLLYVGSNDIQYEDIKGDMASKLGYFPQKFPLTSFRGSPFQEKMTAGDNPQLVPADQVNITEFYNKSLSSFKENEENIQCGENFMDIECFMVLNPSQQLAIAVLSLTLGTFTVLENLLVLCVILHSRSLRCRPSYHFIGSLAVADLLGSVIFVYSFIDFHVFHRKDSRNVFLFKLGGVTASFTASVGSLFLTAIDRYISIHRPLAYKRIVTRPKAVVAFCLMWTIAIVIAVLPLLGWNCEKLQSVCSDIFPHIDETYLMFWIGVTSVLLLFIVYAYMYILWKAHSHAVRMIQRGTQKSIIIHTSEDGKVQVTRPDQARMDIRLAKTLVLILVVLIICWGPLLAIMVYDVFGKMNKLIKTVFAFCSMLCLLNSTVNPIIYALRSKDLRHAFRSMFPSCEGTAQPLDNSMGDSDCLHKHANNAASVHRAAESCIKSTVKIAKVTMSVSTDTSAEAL
T2 sequence (P34972 whole entry): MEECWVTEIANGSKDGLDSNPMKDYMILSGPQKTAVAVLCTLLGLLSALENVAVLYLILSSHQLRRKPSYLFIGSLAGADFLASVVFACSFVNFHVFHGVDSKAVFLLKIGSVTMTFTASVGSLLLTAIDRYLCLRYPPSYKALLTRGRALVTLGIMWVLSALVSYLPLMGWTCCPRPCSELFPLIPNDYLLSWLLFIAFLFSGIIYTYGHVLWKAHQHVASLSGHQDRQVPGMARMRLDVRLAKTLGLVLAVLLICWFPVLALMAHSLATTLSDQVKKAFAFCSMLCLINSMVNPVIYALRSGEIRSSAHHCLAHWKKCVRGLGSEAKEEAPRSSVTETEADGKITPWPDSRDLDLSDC
T3 sequence (P34972 whole entry V36M): as the sequence (P34972 whole entry) above, with V36M counted along it
T4 sequence (P34972 whole entry A282M): as the sequence (P34972 whole entry) above, with A282M counted along it

As to `CCCCCCCCCCCCCCOc1cc(C(C)(C)CCCCCC)cc2c1-c1nn(CC)cc1C(C)(C)O2` [compound 15, 15], the Ki in assay [1] and in assay [2] was greater than 40000 nM throughout.

Consider `CCCCCCCCCCCCCCCCOc1cc(C(C)(C)CCCCCC)cc2c1-c1nn(CC)cc1C(C)(C)O2` [compound 17, 17], for which the Ki in assay [1] and in assay [2] was greater than 40000 nM in each case.

`CCCCCCC(C)(C)c1cc(OCCCCCCCCOc2cc(C(C)(C)CCCCCC)cc3c2-c2c(cnn2CC)C(C)(C)O3)c2c(c1)OC(C)(C)c1cnn(CC)c1-2` [compound 20, bivalent chromenopyrazole 20 (R1 = N1-Et, n = 6)]: the Ki was 2.2 ± 0.7 µM in assay [3] and greater than 40 µM in assay [4].

With `CCCCCCC(C)(C)c1cc(OCCCCCCCCCCOc2cc(C(C)(C)CCCCCC)cc3c2-c2c(cnn2CC)C(C)(C)O3)c2c(c1)OC(C)(C)c1cnn(CC)c1-2` [compound 22, bivalent chromenopyrazole 22 (R1 = N1-Et, n = 8)], the EC50 in assay [5] is 79.4 nM; in assay [6], 20 nM; in assay [7], 63.1 nM. Further, the inhibition constant (Ki) in assay [3] was 0.9 ± 0.2 µM; in assay [4] it was greater than 40 µM.

`CCCCCCC(C)(C)c1cc(OCCCCCCCCCCOc2cc(C(C)(C)CCCCCC)cc3c2-c2nn(CC)cc2C(C)(C)O3)c2c(c1)OC(C)(C)c1cn(CC)nc1-2` [compound 23, bivalent chromenopyrazole 23 (R1 = N2-Et, n = 8)]: the Ki in assay [3] is 5.8 ± 1.5 µM; in assay [4], greater than 40 µM.

For `CCCCCCC(C)(C)c1cc(OCCCCCCCCCCCCOc2cc(C(C)(C)CCCCCC)cc3c2-c2c(cnn2CC)C(C)(C)O3)c2c(c1)OC(C)(C)c1cnn(CC)c1-2` [compound 24, bivalent chromenopyrazole 24 (R1 = N1-Et, n = 10)], the EC50 in assay [5] was 63.1 nM. Moreover, the Ki in assay [3] was 0.4 ± 0.14 µM; in assay [4], greater than 40 µM.

As for `CCCCCCC(C)(C)c1cc(OCCCCCCCCCCCCOc2cc(C(C)(C)CCCCCC)cc3c2-c2nn(CC)cc2C(C)(C)O3)c2c(c1)OC(C)(C)c1cn(CC)nc1-2` [compound 25, bivalent chromenopyrazole 25 (R1 = N2-Et, n = 10)], the EC50 in assay [5] is 63.1 nM. For the same compound, the Ki in assay [3] was 0.3 ± 0.1 µM; in assay [4] it was greater than 40 µM.

Consider `CCCCCCC(C)(C)c1cc(OCCCCCCCCCCCCCCOc2cc(C(C)(C)CCCCCC)cc3c2-c2c(cnn2CC)C(C)(C)O3)c2c(c1)OC(C)(C)c1cnn(CC)c1-2` [compound 26], for which the EC50 in assay [5] was 316 nM. The Ki in assay [3] was 0.8 ± 0.1 µM; in assay [4], greater than 40 µM.

As for `CCCCCCC(C)(C)c1cc(OCCCCCCCCCCCCCCOc2cc(C(C)(C)CCCCCC)cc3c2-c2nn(CC)cc2C(C)(C)O3)c2c(c1)OC(C)(C)c1cn(CC)nc1-2` [compound 27], the EC50 in assay [5] was 25.1 nM; in assay [6] it was 79.4 nM; in assay [7], 50.1 nM. Also, the Ki in assay [3] is 0.3 ± 0.1 µM; in assay [4], greater than 40 µM.

Regarding `CCCCCCC(C)(C)c1cc(OCCCCCCCCCCCCCCCCOc2cc(C(C)(C)CCCCCC)cc3c2-c2c(cnn2CC)C(C)(C)O3)c2c(c1)OC(C)(C)c1cnn(CC)c1-2` [compound 28, bivalent chromenopyrazole 28 (R1 = N1-Et, n = 14)], the Ki in assay [8] and in assay [4] was greater than 40 µM each time.

`CCCCCCC(C)(C)c1cc(OCCCCCCCCCCCCCCCCOc2cc(C(C)(C)CCCCCC)cc3c2-c2nn(CC)cc2C(C)(C)O3)c2c(c1)OC(C)(C)c1cn(CC)nc1-2` [compound 29, bivalent chromenopyrazole 29 (R1 = N2-Et, n = 14)]: the Ki in assay [3] is 2.12 ± 0.21 µM; in assay [4], greater than 40 µM.
